Results as given in patent US7238689B2, “Isoxazoline derivative and herbicide comprising the same as active ingredient” (Ihara Chemical Industry Co., Ltd., priority 2001, dated 2007).

How the values were obtained:
Assay type in all cases: in vivo
Design in all cases: scale not given here
[1] = system: Echinochloa oryzicola Vasing; experiment: Herbicidal effect by paddy field soil treatment; conditions: wettable powder, active ingredient 1000 g/ha, examined at the 21st day from the treatment
Summary of the method: (§1)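 Seeds sown in puddled paddy soil under 3 cm of water; the next day wettable powders diluted in water were dropped onto the water surface at 1,000 g active ingredient/ha. Plants grown in a greenhouse, with herbicidal effect scored on day 21 against a rating standard.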

[2] = system: Monochoria vaginalis (Murm. f.) Presl var. plantaginea (Roxb.) Solms-Laub.; experiment: Herbicidal effect by paddy field soil treatment; conditions: wettable powder, active ingredient 1000 g/ha, examined at the 21st day from the treatment
Summary of the method: as §1

[3] = system: Setaria viridis (L.) Beauv.; experiment: Herbicidal effect by upland foliage treatment; conditions: active ingredient 1000 g/ha, examined at 14th day from treatment
Method: (§2) A sand was filled in a plastic pot of 80 cm^2. Seeds of Echinochloa crus-galli (L.) Beauv. var. crus-galli and Setaria viridis (L.) Beauv. were sowed. Breeding was made in a greenhouse for 2 weeks. Wettable powders produced in accordance with the Formulation 1 were diluted with water and sprayed on the whole foliage of plants from above the plants using a small sprayer in an amount of 1,000 liters per 1 hectare so that the amount of each active ingredient became 1,000 g per 1 hectare. Then, breeding was made in the greenhouse, and the herbicidal effect of each wettable powder was examined at the 14th day from the treatment in accordance with the standard shown in Table 21.

[4] = system: Echinochloa crus-galli (L.) Beauv. var. crus-galli; experiment: Herbicidal effect by upland foliage treatment; conditions: active ingredient 1000 g/ha, examined at 14th day from treatment
Method: as §2

[5] = system: Setaria viridis (L.) Beauv.; experiment: Herbicidal effect by upland field soil treatment; conditions: active ingredient 1000 g/ha, examined at 21st day from treatment
Description: (§3) An upland field soil was filled in a plastic pot of 80 cm^2. Seeds of Echinochloa crus-galli (L.) Beauv. var. crusgalli and Setaria viridis (L.) Beauv. were sowed, followed by covering with the same soil. […] Then, breeding was made in a greenhouse, and the herbicidal effect of each wettable powder was examined at the 21st day from the treatment in accordance with the standard shown in Table 21.

[6] = system: Echinochloa crus-galli (L.) Beauv. var. crusgalli; experiment: Herbicidal effect by upland field soil treatment; conditions: active ingredient 1000 g/ha, examined at 21st day from treatment
Description: as §3

COC(=O)c1c(Cl)sc(Cl)c1CS(=O)(=O)C1=NOC(C)(C)C1 [2-0011]
Herbicidal effect index, Echinochloa oryzicola Vasing [1]: 5
Herbicidal effect index, Monochoria vaginalis (Burm. F.) Presl var. plantaginea (Roxb.) Solms-Laub. [2]: 5
herbicidal effect (index per standard of Table 21), Setaria viridis (L.) Beauv. [3]: 4
herbicidal effect (index per standard of Table 21), Echinochloa curs-galli (L.) Beauv. Var. crus-galli [4]: 5
herbicidal effect (index per standard of Table 21), Setaria viridis (L.) Beauv. [5]: 4
herbicidal effect (index per standard of Table 21), Echinochloa curs-galli (L.) Beauv. Var. crus-galli [6]: 5

COCn1nc(C(F)(F)F)c(CS(=O)(=O)C2=NOC(C)(C)C2)c1Cl [3-0118]
Herbicidal effect index, Echinochloa oryzicola Vasing [1]: 5
Herbicidal effect index, Monochoria vaginalis (Burm. F.) Presl var. plantaginea (Roxb.) Solms-Laub. [2]: 5
herbicidal effect (index per standard of Table 21), Setaria viridis (L.) Beauv. [3]: 4
herbicidal effect (index per standard of Table 21), Echinochloa curs-galli (L.) Beauv. Var. crus-galli [4]: 5
herbicidal effect (index per standard of Table 21), Setaria viridis (L.) Beauv. [5]: 5
herbicidal effect (index per standard of Table 21), Echinochloa curs-galli (L.) Beauv. Var. crus-galli [6]: 5

Cc1cc(CS(=O)(=O)C2=NOC(C)(C)C2)no1 [6-0004]
Herbicidal effect index, Echinochloa oryzicola Vasing [1]: 5
Herbicidal effect index, Monochoria vaginalis (Burm. F.) Presl var. plantaginea (Roxb.) Solms-Laub. [2]: 5
herbicidal effect (index per standard of Table 21), Setaria viridis (L.) Beauv. [3]: 4
herbicidal effect (index per standard of Table 21), Echinochloa curs-galli (L.) Beauv. Var. crus-galli [4]: 5
herbicidal effect (index per standard of Table 21), Setaria viridis (L.) Beauv. [5]: 5
herbicidal effect (index per standard of Table 21), Echinochloa curs-galli (L.) Beauv. Var. crus-galli [6]: 5

Cc1nsc(Cl)c1CS(=O)(=O)C1=NOC(C)(C)C1 [4-0002, [(5-chloro-3-methyl-isothiazol-4-yl)-methylsulfonyl]-5,5-dimethyl-2-isoxazoline]
Herbicidal effect index, Echinochloa oryzicola Vasing [1]: 5
Herbicidal effect index, Monochoria vaginalis (Burm. F.) Presl var. plantaginea (Roxb.) Solms-Laub. [2]: 5
herbicidal effect (index per standard of Table 21), Setaria viridis (L.) Beauv. [3]: 4
herbicidal effect (index per standard of Table 21), Echinochloa curs-galli (L.) Beauv. Var. crus-galli [4]: 5
herbicidal effect (index per standard of Table 21), Setaria viridis (L.) Beauv. [5]: 5
herbicidal effect (index per standard of Table 21), Echinochloa curs-galli (L.) Beauv. Var. crus-galli [6]: 5

Cn1ncc(C(F)(F)F)c1CS(=O)(=O)C1=NOC(C)(C)C1 [5-0003]
Herbicidal effect index, Echinochloa oryzicola Vasing [1]: 5
Herbicidal effect index, Monochoria vaginalis (Burm. F.) Presl var. plantaginea (Roxb.) Solms-Laub. [2]: 5
herbicidal effect (index per standard of Table 21), Setaria viridis (L.) Beauv. [3]: 4
herbicidal effect (index per standard of Table 21), Echinochloa curs-galli (L.) Beauv. Var. crus-galli [4]: 5
herbicidal effect (index per standard of Table 21), Setaria viridis (L.) Beauv. [5]: 5
herbicidal effect (index per standard of Table 21), Echinochloa curs-galli (L.) Beauv. Var. crus-galli [6]: 5

CC(C)Cn1nc(Cl)c(CS(=O)(=O)C2=NOC(C)(C)C2)c1C(F)(F)F [3-0084]
Herbicidal effect index, Echinochloa oryzicola Vasing [1]: 5
Herbicidal effect index, Monochoria vaginalis (Burm. F.) Presl var. plantaginea (Roxb.) Solms-Laub. [2]: 5
herbicidal effect (index per standard of Table 21), Setaria viridis (L.) Beauv. [3]: 4
herbicidal effect (index per standard of Table 21), Echinochloa curs-galli (L.) Beauv. Var. crus-galli [4]: 4
herbicidal effect (index per standard of Table 21), Setaria viridis (L.) Beauv. [5]: 5
herbicidal effect (index per standard of Table 21), Echinochloa curs-galli (L.) Beauv. Var. crus-galli [6]: 5

Cn1nc(C(F)(F)F)c(CS(=O)(=O)C2=NOC(C)(C)C2)c1Cl [3-0039]
Herbicidal effect index, Echinochloa oryzicola Vasing [1]: 5
Herbicidal effect index, Monochoria vaginalis (Burm. F.) Presl var. plantaginea (Roxb.) Solms-Laub. [2]: 5
herbicidal effect (index per standard of Table 21), Setaria viridis (L.) Beauv. [3]: 5
herbicidal effect (index per standard of Table 21), Echinochloa curs-galli (L.) Beauv. Var. crus-galli [4]: 5
herbicidal effect (index per standard of Table 21), Setaria viridis (L.) Beauv. [5]: 5
herbicidal effect (index per standard of Table 21), Echinochloa curs-galli (L.) Beauv. Var. crus-galli [6]: 5

Cc1nn(C)c(CS(=O)(=O)C2=NOC(C)(C)C2)c1Cl [5-0001]
Herbicidal effect index, Echinochloa oryzicola Vasing [1]: 5
Herbicidal effect index, Monochoria vaginalis (Burm. F.) Presl var. plantaginea (Roxb.) Solms-Laub. [2]: 5
herbicidal effect (index per standard of Table 21), Setaria viridis (L.) Beauv. [3]: 4
herbicidal effect (index per standard of Table 21), Echinochloa curs-galli (L.) Beauv. Var. crus-galli [4]: 5
herbicidal effect (index per standard of Table 21), Setaria viridis (L.) Beauv. [5]: 5
herbicidal effect (index per standard of Table 21), Echinochloa curs-galli (L.) Beauv. Var. crus-galli [6]: 5

CC1(C)CC(S(=O)(=O)Cc2ncon2)=NO1 [9-0005]
Herbicidal effect index, Echinochloa oryzicola Vasing [1]: 5
Herbicidal effect index, Monochoria vaginalis (Burm. F.) Presl var. plantaginea (Roxb.) Solms-Laub. [2]: 5
herbicidal effect (index per standard of Table 21), Setaria viridis (L.) Beauv. [3]: 4
herbicidal effect (index per standard of Table 21), Echinochloa curs-galli (L.) Beauv. Var. crus-galli [4]: 4
herbicidal effect (index per standard of Table 21), Setaria viridis (L.) Beauv. [5]: 4
herbicidal effect (index per standard of Table 21), Echinochloa curs-galli (L.) Beauv. Var. crus-galli [6]: 5
